Assays:
[1] = test system: CCL17 secretion in peripheral human whole blood; assay: Human Whole Blood (HWB) CCL17 TR-FRET Assay (IL-13 stimulated CCL17 secretion); assay type: cell-based; conditions: Homo sapiens, 48 h, inhibition of CCL17 secretion in human whole blood, 10 ng/mL IL13, 48 hours
How it was run: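 Heparinized peripheral human whole blood was preincubated with compound (11-point, 3-fold series, duplicate) for 2 h at 37 °C, then stimulated with IL-13 at 10 ng/mL final for 48 h at 37 °C. Secreted CCL17 in the serum was quantified by TR-FRET sandwich immunoassay (665/615 nm ratio, 16 h RT); IC50 derived.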

STAT6 = molecular target: T1, STAT6 (Homo sapiens, UniProt P42226); assay: STAT6 Reporter Luciferase Assay (IL-13 stimulated HaCaT keratinocyte NanoLuc reporter cells); assay type: cell-based; conditions: STAT6 NanoLuc luciferase reporter, IL-13 stimulated HaCaT keratinocyte cells; read-out: Reporter EC50
T1 construct: stably transfected HaCaT keratinocyte cell line, which expresses NanoLuc luciferase reporter gene under the transcriptional control of the STAT6 responsive promoter; endogenous in cells; host or cells: HaCaT keratinocyte reporter cell line (stably transfected with a NanoLuc reporter)
T1 sequence (P42226 1-847): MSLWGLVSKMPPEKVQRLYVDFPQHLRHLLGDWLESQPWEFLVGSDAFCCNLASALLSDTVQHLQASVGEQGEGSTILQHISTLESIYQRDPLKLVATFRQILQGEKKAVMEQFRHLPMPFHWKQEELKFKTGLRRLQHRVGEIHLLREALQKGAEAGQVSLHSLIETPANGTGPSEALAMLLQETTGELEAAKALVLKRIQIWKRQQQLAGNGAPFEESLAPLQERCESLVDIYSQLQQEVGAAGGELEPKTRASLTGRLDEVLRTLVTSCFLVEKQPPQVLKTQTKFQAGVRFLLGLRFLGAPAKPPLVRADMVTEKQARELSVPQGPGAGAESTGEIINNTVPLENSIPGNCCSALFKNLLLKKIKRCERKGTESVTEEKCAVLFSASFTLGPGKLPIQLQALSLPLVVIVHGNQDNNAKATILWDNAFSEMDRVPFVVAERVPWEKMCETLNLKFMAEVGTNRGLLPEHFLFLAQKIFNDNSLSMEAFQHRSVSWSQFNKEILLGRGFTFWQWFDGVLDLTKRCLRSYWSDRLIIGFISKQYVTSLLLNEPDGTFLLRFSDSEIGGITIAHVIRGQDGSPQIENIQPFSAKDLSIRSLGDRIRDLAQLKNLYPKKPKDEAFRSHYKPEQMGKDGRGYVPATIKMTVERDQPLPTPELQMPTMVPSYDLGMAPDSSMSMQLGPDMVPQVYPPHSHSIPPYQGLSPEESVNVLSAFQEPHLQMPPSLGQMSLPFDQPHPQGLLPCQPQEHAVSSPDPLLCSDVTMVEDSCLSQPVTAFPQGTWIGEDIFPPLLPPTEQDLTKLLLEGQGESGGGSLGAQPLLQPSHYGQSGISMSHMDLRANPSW
How it was run: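 HaCaT IL-13Ra2-promoter NanoLuc reporter; cpd 2 h 37 °C in DMEM/2% HI FBS; IL-13 0.12 nM final, 4 h; Nano-Glo luminescence.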

| SMILES | IC50 [1] [nM] | EC50 (STAT6) [nM] |
| --- | --- | --- |
| CC(C)n1nc(C(=O)NCc2ccc(NC(=O)N(C)C)cc2)c2c1CCN(c1ccc(N3CCC4(CC4)C3=O)cn1)C2 [Example 65, N-(4-(3,3-dimethylureido)benzyl)-1-isopropyl-5-(5-(4-oxo-5-azaspiro[2.4]heptan-5-yl)pyridin-2-yl)-4,5,6,7-tetrahydro-1H-pyrazolo[4,3-c]pyridine-3-carboxamide] | 28100 | 208 |
| CC(C)n1nc(C(=O)NCc2ccc(NC(=O)N(C)C)cc2)c2c1CCN(c1ccc(N3C[C@H](C)CC3=O)cn1)C2 [Example 67, (R)-N-(4-(3,3-dimethylureido)benzyl)-1-isopropyl-5-(5-(4-methyl-2-oxopyrrolidin-1-yl)pyridin-2-yl)-4,5,6,7-tetrahydro-1H-pyrazolo[4,3-c]pyridine-3-carboxamide] | 5020 | 64 |
| CC(C)n1nc(C(=O)NCc2ccc(NC(=O)N(C)C)cc2)c2c1CCN(c1ccc(N3C(=O)CC[C@H]3CO)cn1)C2 [Example 69, (S)-N-(4-(3,3-dimethylureido)benzyl)-5-(5-(2-(hydroxymethyl)-5-oxopyrrolidin-1-yl)pyridin-2-yl)-1-isopropyl-4,5,6,7-tetrahydro-1H-pyrazolo[4,3-c]pyridine-3-carboxamide] | 8110 | 1070 |
| CC(C)n1nc(C(=O)NCc2ccc(NC(=O)N(C)C)cc2)c2c1CCN(c1ccc(N3C(=O)CCC34CC4)cn1)C2 [Example 73, N-(4-(3,3-dimethylureido)benzyl)-1-isopropyl-5-(5-(5-oxo-4-azaspiro[2.4]heptan-4-yl)pyridin-2-yl)-4,5,6,7-tetrahydro-1H-pyrazolo[4,3-c]pyridine-3-carboxamide] | 9350 | 121 |
| CC(C)n1nc(C(=O)NCc2ccc(NC(=O)N(C)C)cc2)c2c1CCN(c1ccc(N3C[C@H](CO)CC3=O)cn1)C2 [Example 75, (R)-N-(4-(3,3-dimethylureido)benzyl)-5-(5-(4-(hydroxymethyl)-2-oxopyrrolidin-1-yl)pyridin-2-yl)-1-isopropyl-4,5,6,7-tetrahydro-1H-pyrazolo[4,3-c]pyridine-3-carboxamide] | 4560 | 2830 |
| CC[C@H]1CCC(=O)N1c1ccc(N2CCc3c(c(C(=O)NCc4ccc(NC(=O)N(C)C)cc4)nn3C(C)C)C2)nc1 [Example 79, (S)-N-(4-(3,3-dimethylureido)benzyl)-5-(5-(2-ethyl-5-oxopyrrolidin-1-yl)pyridin-2-yl)-1-isopropyl-4,5,6,7-tetrahydro-1H-pyrazolo[4,3-c]pyridine-3-carboxamide] | 1780 | 41 |
| CC(C)n1nc(C(=O)NCc2ccc(NC(=O)N(C)C)cc2)c2c1CCN(c1ccc(N3C(=O)CC[C@@H]3CO)cn1)C2 [Example 88, (R)-N-(4-(3,3-dimethylureido)benzyl)-5-(5-(2-(hydroxymethyl)-5-oxopyrrolidin-1-yl)pyridin-2-yl)-1-isopropyl-4,5,6,7-tetrahydro-1H-pyrazolo[4,3-c]pyridine-3-carboxamide] | 2080 | 424 |
| CC(C)n1nc(C(=O)NCc2ccc(NC(=O)N(C)C)cc2)c2c1CCN(c1ccc(N3CC4CC4C3=O)cn1)C2 (centres unmarked) [Example 91, N-(4-(3,3-dimethylureido)benzyl)-1-isopropyl-5-(5-(2-oxo-3-azabicyclo[3.1.0]hexan-3-yl)pyridin-2-yl)-4,5,6,7-tetrahydro-1H-pyrazolo[4,3-c]pyridine-3-carboxamide] | 327 | 14 |
| CC(C)n1nc(C(=O)NCc2ccc(NC(=O)N(C)C)cc2)c2c1CCN(c1ccc(N3CC4(CC4)CC3=O)cn1)C2 [Example 97, N-(4-(3,3-dimethylureido)benzyl)-1-isopropyl-5-(5-(6-oxo-5-azaspiro[2.4]heptan-5-yl)pyridin-2-yl)-4,5,6,7-tetrahydro-1H-pyrazolo[4,3-c]pyridine-3-carboxamide] | 3480 | 65 |
| CC(C)n1nc(C(=O)NCc2ccc(NC(=O)N(C)C)cc2)c2c1CCN(c1ccc(N3CC[C@@H](F)C3=O)cn1)C2 [Example 98, (R)-N-(4-(3,3-dimethylureido)benzyl)-5-(5-(3-fluoro-2-oxopyrrolidin-1-yl)pyridin-2-yl)-1-isopropyl-4,5,6,7-tetrahydro-1H-pyrazolo[4,3-c]pyridine-3-carboxamide] | 573 | 48 |
| CC1COC(=O)N1c1ccc(N2CCc3c(c(C(=O)NCc4ccc(NC(=O)N(C)C)cc4)nn3C(C)C)C2)nc1 (centres unmarked) [Example 99, N-(4-(3,3-dimethylureido)benzyl)-1-isopropyl-5-(5-(4-methyl-2-oxooxazolidin-3-yl)pyridin-2-yl)-4,5,6,7-tetrahydro-1H-pyrazolo[4,3-c]pyridine-3-carboxamide] | 453 | 17 |

Stronger by IC50 [1], values ahead:

| IC50 [1] [nM] | EC50 (STAT6) [nM] | SMILES |
| --- | --- | --- |
| 89 | 13 | CC(C)n1nc(C(=O)NCc2ccc(NC(=O)N(C)C)cc2)c2c1CCN(c1ccc(N3C[C@@H](C)CC3=O)cn1)C2 [Example 66, (S)-N-(4-(3,3-dimethylureido)benzyl)-1-isopropyl-5-(5-(4-methyl-2-oxopyrrolidin-1-yl)pyridin-2-yl)-4,5,6,7-tetrahydro-1H-pyrazolo[4,3-c]pyridine-3-carboxamide] |
| 81 | 8 | CN(C)C(=O)Nc1ccc(CNC(=O)c2nn(C)c3c2CN(c2ccc(C(=O)N(C)C)cn2)CC3(F)F)cc1 [Example 70, 5-(5-(dimethylcarbamoyl)pyridin-2-yl)-N-(4-(3,3-dimethylureido)benzyl)-7,7-difluoro-1-methyl-4,5,6,7-tetrahydro-1H-pyrazolo[4,3-c]pyridine-3-carboxamide] |
| 120 | 11 | CCCn1nc(C(=O)NCc2ccc(NC(=O)N(C)C)cc2)c2c1CCN(c1ccc(C(=O)N(C)C)cn1)C2 [Example 74, 5-(5-(dimethylcarbamoyl)pyridin-2-yl)-N-(4-(3,3-dimethylureido)benzyl)-1-propyl-4,5,6,7-tetrahydro-1H-pyrazolo[4,3-c]pyridine-3-carboxamide] |
| 156 | 57 | CN(C)C(=O)Nc1ccc(CNC(=O)c2nn(C3CCOCC3)c3c2CN(c2ccc(C(=O)N(C)C)cn2)CC3)cc1 [Example 76, 5-(5-(dimethylcarbamoyl)pyridin-2-yl)-N-(4-(3,3-dimethylureido)benzyl)-1-(tetrahydro-2H-pyran-4-yl)-4,5,6,7-tetrahydro-1H-pyrazolo[4,3-c]pyridine-3-carboxamide] |
| 56 | 2 | CC(C)n1nc(C(=O)NCc2ccc(NC(=O)N(C)C)cc2)c2c1CCN(c1ccc(N3CC[C@H](F)C3=O)cn1)C2 [Example 84, (S)-N-(4-(3,3-dimethylureido)benzyl)-5-(5-(3-fluoro-2-oxopyrrolidin-1-yl)pyridin-2-yl)-1-isopropyl-4,5,6,7-tetrahydro-1H-pyrazolo[4,3-c]pyridine-3-carboxamide] |
| 149 | 12 | CN(C)C(=O)Nc1ccc(CNC(=O)c2nn(CC3CC3)c3c2CN(c2ccc(C(=O)N(C)C)cn2)CC3)cc1 [Example 89, 1-(cyclopropylmethyl)-5-(5-(dimethylcarbamoyl)pyridin-2-yl)-N-(4-(3,3-dimethylureido)benzyl)-4,5,6,7-tetrahydro-1H-pyrazolo[4,3-c]pyridine-3-carboxamide] |
| 89 | 49 | CN(C)C(=O)Nc1ccc(CNC(=O)c2nn(C3COC3)c3c2CN(c2ccc(C(=O)N(C)C)cn2)CC3)cc1 [Example 94, 5-(5-(dimethylcarbamoyl)pyridin-2-yl)-N-(4-(3,3-dimethylureido)benzyl)-1-(oxetan-3-yl)-4,5,6,7-tetrahydro-1H-pyrazolo[4,3-c]pyridine-3-carboxamide] |
| 66 | 5 | CN(C)C(=O)Nc1ccc(CNC(=O)c2nn(C3CCC3)c3c2CN(c2ccc(C(=O)N(C)C)cn2)CC3)cc1 [Example 96, 1-cyclobutyl-5-(5-(dimethylcarbamoyl)pyridin-2-yl)-N-(4-(3,3-dimethylureido)benzyl)-4,5,6,7-tetrahydro-1H-pyrazolo[4,3-c]pyridine-3-carboxamide] |

— patent publication US20250320213A1, “Nitrogen-Containing Heterocyclic Compounds” (Pfizer Inc., priority 2024, published 2025)
